Values of other authors as cited in patent publication US10166183B2, “Pharmaceutical formulations” (AUSPEX PHARMACEUTICALS, INC., priority 2014, dated 2019).

Conditions: in human plasma; metabolites of orally administered tetrabenazine

Row | half-lives [h] | Compound
1 | 7 | alpha-dihydrotetrabenazine [α-HTBZ]
2 | 5 | COc1cc2c(cc1OC)[C@H]1C[C@H](O)[C@H](CC(C)C)CN1CC2 [β-HTBZ, beta-dihydrotetrabenazine]
